# According to patent US8735429B2, “Benzamide compounds useful as histone deacetylase inhibitors” (AstraZeneca AB, priority 2005, dated 2014):
# Legend:
# recombinant human HDAC1 = target: T1, recombinant human HDAC1 (Homo sapiens, UniProt Q13547); experiment: In vitro enzyme assay of recombinant HDAC1 (Test (a)); assay type: biochemical; settings: recombinant human HDAC1, acetylated histone H4 peptide substrate; read-out: IC50 Test (a) (In vitro assay for the inhibition of HDAC1)
# T1 construct: FLAG (C); made in house; host or cells: Hi5 insect cells
# Description: (a) In Vitro Enzyme Assay of Recombinant HDAC1
# HDAC inhibitors were screened against recombinant human HDAC1 produced in Hi5 insect cells. The enzyme was cloned with a FLAG tag at the C-terminal of the gene and affinity purified using Anti-FLAG M2 agarose from SIGMA (A2220).
# The deacetylase assays were carried out in a 50 μl reaction. HDAC1 (75 ng of enzyme) diluted in 15 μl of reaction buffer (25 mM TrisHCl (pH 8), 137 mM NaCl, 2.7 mM KCl, 1 mM MgCl2) was mixed with either buffer alone (10 μl) or buffer containing compound (10 μl) for 30 minutes at ambient temperature. 25 μM acetylated histone H4 peptide (KI 174 Biomol) diluted in 25 μl of buffer was then added to the reaction and incubated for one hour at ambient temperature. The reaction was stopped by addition of an equal volume (50 μl) of Fluor de Lys developer (Biomol) containing Trichostatin A at 2 μM. The reaction was allowed to develop for 30 minutes at ambient temperature and then fluorescence measured at an excitation wavelength of 360 nm and an emission wavelength of 465 nm. IC50 values for HDAC enzyme inhibitors were determined by performing dose response curves with individual compounds and determining the concentration of inhibitor producing fifty percent decrease in the maximal signal (diluent control).
# HCT116 cells = experiment: In vitro assay of inhibition of proliferation in whole cells (Test (b)); assay type: cell-based; settings: Homo sapiens, HCT-116, 72 hours, MTS, read-out: IC50 Test (b) (In vitro assay for the inhibition of whole cell proliferation)
# Description: (b) In Vitro Assay of Inhibition of Proliferation in Whole Cells
# Inhibition of proliferation in whole cells was assayed using the Promega cell titer 96 aqueous proliferation assay (Promega #G5421). HCT116 cells were seeded in 96 well plates at 1×10^3 cells/well, and allowed to adhere overnight. They were treated with inhibitors for 72 hours. 20 μl of the tetrazolium dye MTS was added to each well and the plates were re-incubated for 3 hours. Absorbance was then measured on a 96 well plate reader at […]. The IC50 values for HDAC inhibitors were determined by performing dose response curves with individual compounds and determining the concentration of inhibitor producing fifty percent decrease in the maximal signal (diluent control).
# T1 sequence (Q13547 whole entry): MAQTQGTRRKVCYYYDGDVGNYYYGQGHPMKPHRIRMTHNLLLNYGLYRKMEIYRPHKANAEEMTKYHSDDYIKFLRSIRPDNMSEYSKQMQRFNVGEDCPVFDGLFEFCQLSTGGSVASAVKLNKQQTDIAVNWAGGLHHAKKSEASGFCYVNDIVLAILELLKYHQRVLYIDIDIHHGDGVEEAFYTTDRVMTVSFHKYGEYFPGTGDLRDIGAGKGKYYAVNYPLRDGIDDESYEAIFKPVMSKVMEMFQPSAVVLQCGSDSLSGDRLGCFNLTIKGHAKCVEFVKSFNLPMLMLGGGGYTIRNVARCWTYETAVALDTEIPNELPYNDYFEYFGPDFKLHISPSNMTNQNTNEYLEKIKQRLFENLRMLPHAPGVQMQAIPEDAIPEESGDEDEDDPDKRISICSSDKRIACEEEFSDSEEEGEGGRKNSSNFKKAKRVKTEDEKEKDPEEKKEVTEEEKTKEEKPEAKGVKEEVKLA
IC50 (recombinant human HDAC1) [nM],IC50 (HCT116 cells) [nM],SMILES
100,1430,"Nc1ccccc1NC(=O)c1ccc(C2CCN(Cc3ccccn3)CC2)cc1 [Comparative Compound 1, N-(2-aminophenyl)-4-[1-(pyrid-2-ylmethyl)piperidin-4-yl]benzamide]"
81,508,"COc1c(CN2CCC(c3ccc(C(=O)Nc4ccccc4N)cc3)CC2)c(C)nn1C [Example 4, N-(2-Aminophenyl)-4-{1-[(5-methoxy-1,3-dimethyl-1H-pyrazol-4-yl)methyl]piperidin-4-yl}benzamide]"
